The source of these data is PMC9558304, “Biomimetic Mineralization of Iron-Fumarate Nanoparticles for Protective Encapsulation and Intracellular Delivery of Proteins” (Chemistry of Materials, 2022).

The target of the experiment is T1, horseradish peroxidase (HRP) (Armoracia rusticana, UniProt P00433).
T1 construct: gene PRXC1A
T1 sequence (P00433 31-338): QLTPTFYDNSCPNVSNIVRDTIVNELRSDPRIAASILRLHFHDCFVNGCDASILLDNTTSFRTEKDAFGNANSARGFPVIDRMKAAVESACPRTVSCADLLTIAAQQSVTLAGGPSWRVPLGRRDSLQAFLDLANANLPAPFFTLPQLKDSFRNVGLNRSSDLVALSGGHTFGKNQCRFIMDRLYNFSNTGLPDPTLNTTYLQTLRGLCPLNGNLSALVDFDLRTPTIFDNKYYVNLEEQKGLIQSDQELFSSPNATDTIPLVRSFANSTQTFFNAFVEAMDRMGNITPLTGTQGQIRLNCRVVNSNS
The experiment can be described thus: fluorescence plate reader ([…] nm), Michaelis-Menten fit. In kind it is biochemical. As to conditions: free HRP added to degraded Fe-fum NPs (citrate buffer); 2500 μM H2O2; Amplex UltraRed 0-100 μM.

Turning to Amplex UltraRed, the Km (in general, the concentration of substrate that gives half-maximal velocity) was 182 ± 73 µM.
